Laboratory results taken from the supplement of paper PMC10307832.

Assays:
Test in all cases: relative viability (nuclei count vs DMSO), 5 days (fraction); higher = more cells survive
[1] = system: 201T
In short: (§1)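 The day after seeding in 1536-well plates, lung cancer cell lines were treated by pin tool with a single drug, or with a fixed anchor-drug dose together with five library-drug doses (not always all listed) in √10 steps. After 5 days, a combined fix-and-stain solution (final 0.05% Triton X-100, 1% formaldehyde, 1 ug/ml Hoechst) was added. Nuclei counted on 4× images gave relative viability as treated counts over vehicle counts, reported as the median of duplicate plates.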

[2] = system: A-427
In short: as §1

[3] = system: ABC-1
In short: as §1

[4] = system: BEN
In short: as §1

[5] = system: CAL-12T
In short: as §1

[6] = system: H3255
In short: as §1

[7] = system: HCC-15
In short: as §1

[8] = system: LC-2-ad
In short: as §1

[9] = system: LCLC-97TM1
In short: as §1

[10] = system: NCI-H1650
In short: as §1

[11] = system: NCI-H1651
In short: as §1

[12] = system: NCI-H1792
In short: as §1

[13] = system: NCI-H1915
In short: as §1

[14] = system: NCI-H1944
In short: as §1

[15] = system: NCI-H2023
In short: as §1

[16] = system: NCI-H2087
In short: as §1

[17] = system: NCI-H441
In short: as §1

[18] = system: NCI-H460
In short: as §1

[19] = system: NCI-H520
In short: as §1

[20] = system: NCI-H596
In short: as §1

[21] = system: NCI-H650
In short: as §1

[22] = system: NCI-H661
In short: as §1

[23] = system: NCI-H727
In short: as §1

[24] = system: PC-3 [JPC-3]
In short: as §1

In the case of `C[C@@H]1CN(CC(=O)Nc2ccc3c(c2)Cc2cccc(-c4cc(=O)cc(N5CCOCC5)o4)c2S3)C[C@H](C)O1` + COc1cccc2cc(-c3nc([C@H]4CC[C@H](C(=O)O)CC4)n4ncnc(N)c34)[nH]c12 [OSI-027] (partner 0.5 µM), the relative viability ([1]; first compound 0.04 µM) is reported as 0.784, the relative viability ([1]; first compound 0.1265 µM) is reported as 0.68 and the relative viability ([1]; first compound 0.4 µM) is reported as 0.683. The relative viability ([1]; first compound 4 µM) was 0.757, the relative viability ([2]; first compound 0.04 µM) was 0.501 and the relative viability ([2]; first compound 0.1265 µM) was 0.53. The relative viability ([2]; first compound 0.4 µM) was 0.482, the relative viability ([2]; first compound 4 µM) was 0.575 and the relative viability ([3]; first compound 0.1265 µM) was 0.541. For the same molecule, the relative viability ([3]; first compound 0.4 µM) was 0.466, the relative viability ([3]; first compound 4 µM) was 0.439 and the relative viability ([4]; first compound 0.04 µM) was 0.288. It also gave a relative viability ([4]; first compound 0.1265 µM) of 0.28, a relative viability ([4]; first compound 0.4 µM) of 0.305 and a relative viability ([4]; first compound 4 µM) of 0.296. The relative viability ([5]; first compound 0.04 µM) was 0.734, the relative viability ([5]; first compound 0.1265 µM) was 0.675 and the relative viability ([5]; first compound 0.4 µM) was 0.561. The relative viability ([5]; first compound 4 µM) was 0.237, the relative viability ([6]; first compound 0.04 µM) was 0.599 and the relative viability ([6]; first compound 0.1265 µM) was 0.624. For the same molecule, the relative viability ([6]; first compound 0.4 µM) was 0.48, the relative viability ([6]; first compound 4 µM) was 0.491 and the relative viability ([7]; first compound 0.04 µM) was 0.76. The relative viability ([7]; first compound 0.1265 µM) was 0.606, the relative viability ([7]; first compound 0.4 µM) was 0.485 and the relative viability ([7]; first compound 4 µM) was 0.524. For the same molecule, the relative viability ([8]; first compound 0.04 µM) was 0.984, the relative viability ([8]; first compound 0.1265 µM) was 0.923 and the relative viability ([8]; first compound 0.4 µM) was 0.649. For the same molecule, the relative viability ([8]; first compound 4 µM) was 0.656, the relative viability ([9]; first compound 0.04 µM) was 0.45 and the relative viability ([9]; first compound 0.1265 µM) was 0.601. For the same molecule, the relative viability ([9]; first compound 0.4 µM) was 0.408, the relative viability ([9]; first compound 4 µM) was 0.509 and the relative viability ([10]; first compound 0.04 µM) was 0.761. The relative viability ([10]; first compound 0.1265 µM) was 0.662, the relative viability ([10]; first compound 0.4 µM) was 0.591 and the relative viability ([10]; first compound 4 µM) was 0.449. For the same molecule, the relative viability ([11]; first compound 0.04 µM) was 0.694, the relative viability ([11]; first compound 0.1265 µM) was 0.836 and the relative viability ([11]; first compound 0.4 µM) was 0.741. It also gave a relative viability ([11]; first compound 4 µM) of 0.585, a relative viability ([12]; first compound 0.04 µM) of 0.692 and a relative viability ([12]; first compound 0.1265 µM) of 0.639. For the same molecule, the relative viability ([12]; first compound 0.4 µM) was 0.633, the relative viability ([12]; first compound 4 µM) was 0.458 and the relative viability ([13]; first compound 0.04 µM) was 0.623. For the same molecule, the relative viability ([13]; first compound 0.1265 µM) was 0.682, the relative viability ([13]; first compound 0.4 µM) was 0.632 and the relative viability ([13]; first compound 4 µM) was 0.497. The relative viability ([14]; first compound 0.04 µM) was 0.386, the relative viability ([14]; first compound 0.1265 µM) was 0.475 and the relative viability ([14]; first compound 0.4 µM) was 0.389. For the same molecule, the relative viability ([14]; first compound 4 µM) was 0.336, the relative viability ([15]; first compound 0.04 µM) was 0.518 and the relative viability ([15]; first compound 0.1265 µM) was 0.387. It also gave a relative viability ([15]; first compound 0.4 µM) of 0.306, a relative viability ([15]; first compound 4 µM) of 0.197 and a relative viability ([16]; first compound 0.04 µM) of 0.847. It also gave a relative viability ([16]; first compound 0.1265 µM) of 0.521, a relative viability ([16]; first compound 0.4 µM) of 0.463 and a relative viability ([16]; first compound 4 µM) of 0.457. It also gave a relative viability ([17]; first compound 0.04 µM) of 0.74, a relative viability ([17]; first compound 0.1265 µM) of 0.791 and a relative viability ([17]; first compound 0.4 µM) of 0.398. For the same molecule, the relative viability ([17]; first compound 4 µM) was 0.438, the relative viability ([18]; first compound 0.04 µM) was 0.662 and the relative viability ([18]; first compound 0.1265 µM) was 0.674. For the same molecule, the relative viability ([18]; first compound 0.4 µM) was 0.587, the relative viability ([18]; first compound 4 µM) was 0.253 and the relative viability ([19]; first compound 0.04 µM) was 0.272. It also gave a relative viability ([19]; first compound 0.1265 µM) of 0.227, a relative viability ([19]; first compound 0.4 µM) of 0.221 and a relative viability ([19]; first compound 4 µM) of 0.264. For the same molecule, the relative viability ([20]; first compound 0.04 µM) was 0.899, the relative viability ([20]; first compound 0.1265 µM) was 0.931 and the relative viability ([20]; first compound 0.4 µM) was 0.537. The relative viability ([20]; first compound 4 µM) was 0.549, the relative viability ([21]; first compound 0.04 µM) was 0.491 and the relative viability ([21]; first compound 0.1265 µM) was 0.443. For the same molecule, the relative viability ([21]; first compound 0.4 µM) was 0.51, the relative viability ([21]; first compound 4 µM) was 0.36 and the relative viability ([22]; first compound 0.04 µM) was 0.694. For the same molecule, the relative viability ([22]; first compound 0.1265 µM) was 0.701, the relative viability ([22]; first compound 0.4 µM) was 0.646 and the relative viability ([22]; first compound 4 µM) was 0.666. For the same molecule, the relative viability ([23]; first compound 0.04 µM) was 0.546, the relative viability ([23]; first compound 0.1265 µM) was 0.485 and the relative viability ([23]; first compound 0.4 µM) was 0.537. For the same molecule, the relative viability ([23]; first compound 4 µM) was 0.656, the relative viability ([24]; first compound 0.04 µM) was 0.81 and the relative viability ([24]; first compound 0.1265 µM) was 0.815. For the same molecule, the relative viability ([24]; first compound 0.4 µM) was 0.66 and the relative viability ([24]; first compound 4 µM) was 0.577.
